Measured values published in patent US20060240048A1 (priority 2002, published 2006).

Molecular target: T1, human cannabinoid CB2 receptor (Homo sapiens, UniProt P34972)
T1 construct: expressed in transfected cells; host or cells: Saccharomyces cerevisiae strain MMY23
Test: Cannabinoid CB2 receptor agonist activity, yeast reporter assay (FDGlu fluorescence);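 for Emax: 100% equals maximal response of reference agonist HU210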
Type: cell-based
Conditions: for Emax: read-out: efficacy value (Emax) at the cloned human cannabinoid CB2 receptor
Protocol: The cannabinoid CB2 receptor agonist activity of the compounds of formula (I) was determined in accordance with the following experimental method.
Yeast (Saccharomyces cerevisiae) cells expressing the human cannabinoid CB2 receptor were generated by integration of an expression cassette into the ura3 chromosomal locus of yeast strain MMY23. This cassette consisted of DNA sequence encoding the human CB2 receptor flanked by the yeast GPD promoter to the 5′ end of CB2 and a yeast transcriptional terminator sequence to the 3′ end of CB2. MMY23 expresses a yeast/mammalian chimeric G-protein alpha subunit in which the C-terminal 5 amino acids of Gpa1 are replaced with the C-terminal 5 amino acids of human Gαi3 (as described in Brown et al. (2000), Yeast 16:11-22). Cells were grown at 30° C. in liquid Synthetic Complete (SC) yeast media (Guthrie and Fink (1991), Methods in Enzymology, Vol. 194) lacking uracil, tryptophan, adenine and leucine to late logarithmic phase (approximately 6 OD600/ml).
Agonists were prepared as 10 mM stocks in DMSO. […] Agonist solutions in DMSO (1% final assay volume) were transferred into black, clear bottom, microtitre plates from NUNC (96- or 384-well). […] This mixture (50 ul per well for 384-well plates, 200 ul per well for 96-well plates) was added to agonist in the assay plates (Multidrop 384, Labsystems). After incubation at 30° C. for 24 hours, fluorescence resulting from degradation of FDGlu to fluorescein due to exoglucanase, an endogenous yeast enzyme produced during agonist-stimulated cell growth, was determined using a Spectrofluor microtitre plate reader (Tecan; excitation wavelength: 485 nm; emission wavelength: 535 nm). Fluorescence was plotted against compound concentration and iteratively curve fitted using a four parameter fit to generate a concentration effect value.
where Max[compound X] and Min[compound X] are the fitted maximum and minimum respectively from the concentration effect curve for compound X, and Max[HU210] and Min[HU210] are the fitted maximum and minimum respectively from the concentration effect curve for (6aR,10aR)-3-(1,1′-Dimethylheptyl)-6a,7,10,10a-tetrahydro-1-hydroxy-6,6-dimethyl-6H-dibenzo[b,d]pyran-9-methanol (HU210; available from Tocris). Equieffective molar ratio (EMR) values were calculated from the equation EMR=EC50 [compound X]/EC50 [HU210]
Where EC50 [compound X] is the EC50 of compound X and EC50 [HU210] is the EC50 of HU210.

T1 sequence (P34972 whole entry): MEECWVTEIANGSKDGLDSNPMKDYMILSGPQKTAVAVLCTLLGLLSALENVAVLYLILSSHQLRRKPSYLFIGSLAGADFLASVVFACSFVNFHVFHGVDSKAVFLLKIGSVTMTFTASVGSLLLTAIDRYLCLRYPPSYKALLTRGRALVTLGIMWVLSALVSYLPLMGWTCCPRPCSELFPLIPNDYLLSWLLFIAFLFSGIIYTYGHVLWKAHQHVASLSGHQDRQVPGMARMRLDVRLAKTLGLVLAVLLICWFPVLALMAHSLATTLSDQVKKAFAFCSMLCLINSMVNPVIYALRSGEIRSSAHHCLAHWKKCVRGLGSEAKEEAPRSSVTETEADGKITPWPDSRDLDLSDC

SMILES	EC50	Emax
CC(C)c1nc(Nc2cccc(Cl)c2)ccc1C(=O)NCC1CCCC1 [Example 210, 6-(3-Chloro-phenylamino)-N-cyclopentylmethyl-2-isopropyl-nicotinamide]	< 300 nM	> 50%
CC(C)c1cc(Nc2ccc(Cl)cc2Cl)ncc1C(=O)NCC1CCCCC1 [Example 5, N-Cyclohexylmethyl-6-(2,4-dichloro-phenylamino)-4-isopropyl-nicotinamide]	< 300 nM	> 50%
O=C(NCC1CC1)c1cnc(Nc2cccc(F)c2)cc1C(F)(F)F [Example 132, N-Cyclopropylmethyl-6-(3-fluoro-phenylamino)-4-tri-fluoromethyl-nicotinamide]	< 300 nM	> 50%
CC(C)c1cc(Nc2ccc(C#N)c(Cl)c2)ncc1C(=O)NCC1CCCC1 [Example 247, 6-(3-Chloro-4-cyano-phenytamino)-N-cyclopentylmethyl-4-isopropyl-nicotinamide]	< 300 nM	> 50%
CC(C)c1cc(Nc2cccc(OC(F)(F)F)c2)ncc1C(=O)NCC1CCOCC1 [Example 20, 4-Isopropyl-N-(tetrahydro-pyran-4-ylmethyl)-6-(3-trifluoromethoxy-phenylamino) nicotinamide]	< 300 nM	> 50%
O=C(NCC1CCCC1)c1cnc(Nc2ccccc2)cc1C(F)(F)F [Example 108, N-Cyclopentylmethyl-6-phenylamino-4-trifluoro-methyl-nicotinamide]	< 300 nM	> 50%
CC(C)c1cc(Nc2ccc(Cl)cc2Br)ncc1C(=O)NCC1CCC1 [Example 256, 6-(2-Bromo-4-chloro-phenylamino)-N-cyclobutylmethyl-4-isopropyl-nicotinamide]	< 300 nM	> 50%
CC(C)c1cc(Nc2cccc(Cl)c2Cl)ncc1C(=O)NCC1CCC1 [Example 252, N-Cyclobutylmethyl-6-(2,3-dichloro-phenylamino)-4-isopropyl-nicotinamide]	< 300 nM	> 50%
CC(C)c1cc(Nc2cc(Cl)ccc2F)ncc1C(=O)NCC1CCOCC1 [Example 76, 6-(5-Chloro-2-fluoro-phenylamino)-4-isopropyl-N-(tetrahydro-pyran-4-ylmethyl)-nicotinamide]	< 300 nM	> 50%
Cc1ccc(Nc2cc(C(C)C)c(C(=O)NCC3CCOCC3)cn2)cc1Cl [Example 85]	< 300 nM	> 50%
CC(C)c1cc(Nc2ccc(Cl)c(Cl)c2)ncc1C(=O)NCC1CCCC1 [Example 32]	< 300 nM	> 50%
CC(C)c1cc(Nc2ccc(Cl)cc2Cl)ncc1C(=O)NCC1CCCC1 [Example 31]	< 300 nM	> 50%
CC(C)CNC(=O)c1cnc(Nc2ccc(Cl)c(Cl)c2)cc1C(C)C [Example 270, 6-(3,4-Dichloro-phenylamino)-N-isobutyl-4-isopropyl-nicotinamide]	< 300 nM	> 50%
O=C(NCC1CCC1)c1cnc(Nc2ccc(F)cc2Cl)cc1C(F)(F)F [Example 163, N-Cyclobutylmethyl-6-(2-Chloro-4-fluoro-phenyl-amino)-4-trifluoromethyl-nicotinamide]	< 300 nM	> 50%
O=C(NCC1CCCC1)c1cnc(Nc2cccc(Cl)c2)cc1C(F)(F)F [Example 114, N-Cyclopentylmethyl-6-(3-chlorophenylamino)-4-tri-fluoromethyl-nicotinamide]	< 300 nM	> 50%
CC(C)c1cc(Nc2cccc(F)c2)ncc1C(=O)NCC1CCOCC1 [Example 39, 6-(3-Fluoro-phenylamino)-4-isopropyl-N-(tetrahydro-pyran-4-ylmethyl)-nicotinamide]		> 50%
COc1cccc(Nc2cc(C(C)C)c(C(=O)NCC3CCOCC3)cn2)c1 [Example 41, 4-Isopropyl-6-(3-methoxy-phenylamino)-N-(tetrahydro-pyran-4-ylmethyl)-nicotinamide]		> 50%
CC(C)c1cc(Nc2cc(F)cc(C(F)(F)F)c2)ncc1C(=O)NCC1CCOCC1 [Example 80, 6-(3-Fluoro-5-trifluoromethyl-phenylamino)-4-isopropyl-N-(tetrahydro-pyran-4-ylmethyl) nicotinamide]	< 300 nM	> 50%

SMILES	EC50	Emax
O=C(NCC1CCOCC1)c1cnc(Nc2ccc(Cl)c(Cl)c2)cc1C(F)(F)F [Example 155, N-(Tetrahydropyran-4-yl-methyl)-6-(3,4-dichloro-phenylamino)-4-trifluoro-methyl-nicotinamide]	< 300 nM	> 50%
CC(C)c1cc(Nc2ccc(Cl)cc2Br)ncc1C(=O)NCC1CCCC1 [Example 89, 6-(2-Bromo-4-chloro-phenylamino)-N-cyclopentylmethyl-4-isopropyl-nicotinamide]	< 300 nM	> 50%
O=C(NCC1CCCC1)c1cnc(Nc2ccc(Cl)c(Cl)c2)cc1C(F)(F)F [Example 156, N-Cyclopentylmethyl-6-(3,4-dichloro-phenylamino)-4-tri-fluoromethyl-nicotinamide]	< 300 nM	> 50%
Cc1cccc(Nc2cc(C(C)C)c(C(=O)NCC3CCCCC3)cn2)c1 [Example 13, N-Cyclohexylmethyl-4-isopropyl-6-m-tolytamino-nicotinamide]	< 300 nM	> 50%
O=C(NCC1CCOCC1)c1cnc(Nc2ccc(Cl)cc2F)cc1C(F)(F)F [Example 162, N-(Tetrahydropyran-4-yl-methyl)-6-(2-fluoro-4-chloro-phenylamino)-4-trifluoro-methyl-nicotinamide]	< 300 nM	> 50%
CC(C)c1cc(Nc2ccc(OC(F)(F)F)cc2Br)ncc1C(=O)NCC1CCOCC1 [Example 240, 6-(2-Bromo-4-trifluoromethoxy-phenylamino)-4-isopropyl-N-(tetrahydro-pyran-4-ylmethyl)-nicotinamide]	< 300 nM	> 50%
CC(C)c1cc(Nc2ccc(Cl)cc2Br)ncc1C(=O)NCC1CCOCC1 [Example 83, 6-(2-Bromo-4-chloro-phenylamino)-4-isopropyl-N-(tetrahydro-pyran-4-ylmethyl) nicotinamide]	< 300 nM	> 50%
CC(C)c1cc(Nc2ccc(Br)cc2Cl)ncc1C(=O)NCC1CCC1 [Example 255, 6-(4-Bromo-2-chloro-phenylamino)-N-cyclobutylmethyl-4-isopropyl-nicotinamide]	< 300 nM	> 50%
CC(C)c1cc(Nc2cccc(C#N)c2)ncc1C(=O)NCC1CCCC1 [Example 28, 6-(3-Cyano-phenylamino)-N-cyclopentylmethyl-4-isopropyl-nicotinamide]	< 300 nM	> 50%
Cc1cccc(Nc2cc(C(C)C)c(C(=O)NCC3CCC3)cn2)c1 [Example 37, N-Cyclobutylmethyl-4-isopropyl-6-m-tolylamino-nicotinamide]		> 50%
O=C(NC1CCC1)c1cnc(Nc2ccc(Cl)cc2Cl)cc1C(F)(F)F [Example 140, N-Cyclobutyl-6-(2,4-dichloro-phenylamino)-4-trifluoro-methyl-nicotinamide]	< 300 nM	> 50%
CC(C)c1cc(Nc2cc(F)cc(F)c2)ncc1C(=O)NCC1CCC1 [Example 265, N-Cyclobutylmethyl-6-(3,5-difluoro-phenylamino)-4-isopropyl-nicotinamide]	< 300 nM	> 50%
CC(C)c1cc(Nc2ccc(OC(F)(F)F)cc2Br)ncc1C(=O)NCC1CCC1 [Example 291, 6-(2-Bromo-4-trifluoromethoxy-phenylamino)-N-cyclobutylmethyl-4-isopropyl-nicotinamide]		> 50%
CC(C)(C)c1cc(Nc2cccc(Cl)c2)ncc1C(=O)NCC1CCCCC1 [Example 69, 4-tert-Butyl-6-(3-chloro-phenylamino)-N-cyclohexylmethyl-nicotinamide]	< 300 nM	> 50%
CC(C)c1cc(Nc2cccc(Cl)c2)ncc1C(=O)NCC1CCCCC1 [Example 2, 6-(3-Chlorophenylamino)-N-cyclohexylmethyl-4-isopropylnicotinamide]	< 300 nM	> 50%
O=C(NCC1CCOCC1)c1cnc(Nc2ccc(Cl)cc2Cl)cc1C(F)(F)F [Example 105, 6-(2,4-Dichloro-phenylamino)-N-(tetrahydropyran-4-ylmethyl)-4-trifluoromethyl-nicotinamide]		> 50%
O=C(NCC1CCC1)c1cnc(Nc2cc(Cl)cc(Cl)c2)cc1C(F)(F)F [Example 150, N-Cyclobutylmethyl-6-(3,5-dichloro-phenylamino)-4-tri-fluoromethyl-nicotinamide]	< 300 nM	> 50%
